Structures are written as SMILES.

Data set [1] can be described thus: Cyclic voltammetry (reduction of the nitro group). The data set is classed as physicochemical. The settings on record: for Ipa/Ipc / |ΔEp| / −EpaII / −EpcII / −EpcI: cyclic voltammetry at 2.0 V/s; for −EpaII / −EpcII / −EpcI: DMSO, 0.1 M TBAP, vs Ag/AgCl. Further details: key to −EpcI / −EpcII / −EpaII / −EpaI: potentials in V vs Ag/AgCl; |ΔEp|: unit not given here. The source says:
The chemistry mechanism of reduction in nitroisoxazole derivatives was investigated using cyclic voltammetry.
The peak near −1.32 V corresponds to a quasi-reversible one-electron transfer, according to the criteria of Nicholson–Shain [26] (Table 1), attributable to the species −NO2/NO2.− . The latter species stable anion radical at room temperature. […] An irreversible peak at −0.93 V to the mono-electronic transfer −HNO2/HNO2.− is observed, coupled with a chemical reaction associated with […] of the formed radical. This was evidenced by the addition of NaOH (1 M), which caused a decrease in the Ic peak (Figure 2c).
As previously described, an irreversible signal assigned to hydroxylamine oxidation to a nitroso derivative is also observed for N-acylhydrazones organometallic compounds with a pendant 5-nitrofuryl group. […] Compound 7, which has the least negative reduction potential, can be attributed to introducing a nitro group in the para position of the nitroisoxazole ring. This effect can also be observed in derivatives containing halogens in the same position.
Electrochemical characterization of the new compounds was performed through cyclic voltammetry (CV) on a 693 VA Metrohm instrument (Tokyo, Japan) equipped with a 694 VA Stand converter and 693 VA processor. Potentials were recorded against the Ag/AgCl reference electrode; a hanging drop of mercury (HDME) was used as a working electrode, and platinum was used as an auxiliary electrode. Tetrabutylammonium perchlorate (TBAP, 0.1 M) in DMSO was used as a supporting electrolyte under an N2 atmosphere at room temperature. Using Nicholson´s procedure, the Ipa/Ipc values (RNO2/RNO2^−) were measured from each cyclic voltammogram with a scan rate between 0.1 and 2.5 V/s.

Data set [2] can be described thus: ORAC-FL antioxidant capacity. The settings on record: relative to Trolox; phosphate buffer 75 mM, pH 7.4, 37 °C. As for the experimental part:
To corroborate the generation of the nitro radical, the antioxidant capacity of the series under study was determined by ORAC-FL methodology, employing a fluorescent probe to capture oxygen-centered radicals (Table 2). The ORAC-FL values of the studied compounds are close to the reference value of Trolox, indicating a low antioxidant capacity. For compounds (1-3), the presence of amino substituents decreases antioxidant activity due to their […] characteristics, preventing the presence of labile hydrogens. […] Compounds 4 and 10 present similar ORAC indexes as aromatic rings with high electron density insert the transfer of labile protons. Antioxidant capacity was determined using the ORAC-fluorescence methodology (ORAC-FL). The analysis used a 96-well white polystyrene plate reader (EnSpire multimode PerkinElmer, Waltham, MA, USA). The reaction was carried out in phosphate buffer (75 mM, pH 7.4). […] A blank with FL and AAPH, using dimethyl sulfoxide instead of the antioxidant solution, was used in each assay. […] The inhibitor capacity was expressed as ORAC-FL values and quantified by integrating the area under the curve (AUCNET). All reaction mixtures were prepared in triplicate, and at least three independent assays were performed for each sample. The area under the fluorescence decay curve (AUC) was calculated by integrating the fluorescence decay where F0 is the initial fluorescence read at 0 min, and F is the fluorescence read at the time. The AUCNET corresponding to the sample was calculated by subtracting the AUC corresponding to the blank. Data were processed using Origin […].5 SR2 (San Francisco, CA, USA). The ORAC-FL indices were calculated according to the following Equation (1): (1) ORAC-[…]]

Data set [3] concerns epimastigote of T. cruzi Dm28. Nature of the data set: Trypanocidal activity (MTT) on epimastigotes. The data set is classed as cell-based. The settings on record: Trypanosoma cruzi; for killing at 100 µM: 24 h, n.a = not active, read-out: % T. cruzi Epimastigote (trypanocidal effect); for IC50: T. cruzi Dm28, 24 h, read-out: IC50 T. cruzi E (epimastigote). The procedure:
As a preliminary step, a study of nitroisoxazole derivatives on the epimastigote form of T. cruzi was performed. Despite the epimastigote form not being a clinical form present in mammals, its easy handling has allowed screening for the trypanocidal activity of various compounds. It is worth noting that, during the intracellular life cycle of the parasite, a form similar to the epimastigote, which is biochemically and morphologically identical to the form present in the vector, has been described. […] RPMI 1640 medium) for 24 h. […] The effects of the compounds on trypomastigote and Vero cell viability were evaluated by tetrazolium salt reduction assay (MTT). […] The plates were kept overnight at 37 °C (28 °C for epimastigotes), and the optical density (OD) was determined using a 96-well microplate reader (Vantaa, Finland) at 570 nm. Under these conditions, the OD is directly proportional to each well’s viable number of cells. The experiments were performed in triplicate across three different assays.

Data set [4] has as its system trypomastigote of T. cruzi Dm28. In words: Trypanocidal activity (MTT) on trypomastigotes. Type of data set: cell-based. The settings on record: Trypanosoma cruzi; for killing at 100 µM: 24 h, n.a = not active, read-out: % T. cruzi Trypomastigote (trypanocidal effect); for IC50: T. cruzi Dm28, 24 h. The procedure: As a preliminary step, a study of nitroisoxazole derivatives on the epimastigote form of T. cruzi was performed. Despite the epimastigote form not being a clinical form present in mammals, its easy handling has allowed screening for the trypanocidal activity of various compounds. It is worth noting that, during the intracellular life cycle of the parasite, a form similar to the epimastigote, which is biochemically and morphologically identical to the form present in the vector, has been described. […] This is consistent with studies by Fonseca-Berzal et al. […] Additionally, compounds with higher activity have aromatic rings as substituents for nitroisoxazoles, confirming what was described Do […] [40]. […] It has also been determined that the presence of an isoxazole is essential for activity, as its aromatic structure contains a weak nitrogen-oxygen bond that, under different reaction conditions, can undergo ring cleavage, increasing activity. The results obtained on epimastigotes cannot be conclusive for determining potential Chagas agents, so conducting studies on the infective, extracellular, non-replicative trypomastigote form of T. cruzi present in humans is essential. […] RPMI 1640 medium) for 24 h. […] The effects of the compounds on trypomastigote and Vero cell viability were evaluated by tetrazolium salt reduction assay (MTT). […] The plates were kept overnight at 37 °C (28 °C for epimastigotes), and the optical density (OD) was determined using a 96-well microplate reader (Vantaa, Finland) at 570 nm. Under these conditions, the OD is directly proportional to each well's viable number of cells. The experiments were performed in triplicate across three different assays.

Data set [5] has as its system Vero mammalian cells. In words: Cytotoxicity (MTT) on Vero cells. The data set is classed as cell-based. The settings on record: Chlorocebus sabaeus, 24 h. As for the experimental part: Additionally, the cytotoxicity of the compounds on VERO mammalian cells was assessed (Table 4). […] It is observed that the majority of the derivatives present considerable cytotoxicity. […] RPMI 1640 medium) for 24 h. […] The effects of the compounds on trypomastigote and Vero cell viability were evaluated by tetrazolium salt reduction assay (MTT). […] The plates were kept overnight at 37 °C (28 °C for epimastigotes), and the optical density (OD) was determined using a 96-well microplate reader (Vantaa, Finland) at 570 nm. Under these conditions, the OD is directly proportional to each well’s viable number of cells. The experiments were performed in triplicate across three different assays.

Data set [6] has as its system T. cruzi trypomastigotes. In words: Generation of ROS (DCFH2-DA fluorescent probe). The settings on record: 100 µM; for ROS generation (DCF fluorescence intensity): 40 min, vs control without compound. Type of data set: cell-based, Trypanosoma cruzi. The procedure:
To generate radical species on T. cruzi trypomastigotes, intracellular free radicals were determined using the fluorescent probe dichlorofluorescein (DCF).
The cultures were incubated with a 20 µM DCFH2-DA solution for 15 min at 28 °C. Then, they were centrifuged at 3500 rpm and washed 2 times with phosphate buffer saline (PBS) pH 7.4. Cells loaded with DCFH2-DA were transferred to a Nunc® fluorescence 96-well plate (Thermo Fisher Scientific Inc., Waltham, MA, USA), where the nitroisoxazoles derivates were added at 100 µM. Fluorescence (exi: 488 nm, emi: 528 nm) was recorded for 40 min in a BioTek (Winooski, VT, USA) Synergy HT spectrofluorometer. The area under increase curves over time was determined using Oring 8 software, with areas normalized to control. Results are the means ± SD of three independent experiments.

In general, IC50 refers to the concentration needed to halve the response being measured. For orientation: melting point means the temperature of the solid-liquid transition. As for `Cc1noc(/C=C/c2ccc(F)cc2)c1[N+](=O)[O-]` [Compound 5, (E)-5-(4-Fluorostyryl)-3-methyl-4-nitroisoxazole], the melting point was in the range of 169 to 171 °C. Further, in data set [1], the Ipa/Ipc is on record as −0.02, the “|ΔEp|” value is listed as 110, the “−EpaII” value was 0.71 and the “−EpcII” value is recorded as 0.82. Further, the “ORAC-FL Index” value in data set [2] is reported as 0.74 ± 0.05. Besides, in data set [3], the killing at 100 µM amounted to 47 ± 1% and the 50% inhibitory concentration (IC50) was 400 ± 3 µM. For the same compound, in data set [4], the killing at 100 µM was 19 ± 3% and the 50% inhibitory concentration (IC50) was over 400 µM. The compound further showed a half-maximal inhibitory concentration (IC50) in data set [5] of over 400 µM. Besides, the “ROS generation (DCF fluorescence intensity)” value in data set [6] is on record as “increase in fluorescence intensity”. The “ROS generation compared with Nfx” value in data set [6] (Figure 3) is reported as “more reactive oxygen species (ROS) than Nfx”.
In turn, `Cc1noc(/C=C/c2cccc(Br)c2)c1[N+](=O)[O-]` [Compound 16, (E)-5-(3-Bromostyryl)-3-methyl-4-nitroisoxazole] returned a melting point of 174 to 177 °C. In data set [1], the “−EpcI” value was 0.78 and the “−EpcII” value is reported as 1.41. The “ORAC-FL Index” value in data set [2] stood at 0.54 ± 0.07. In data set [3], the killing at 100 µM was determined as 19 ± 3% and the IC50 was over 400 µM. Besides, in data set [4], the killing at 100 µM stood at 22 ± 6% and the IC50 was over 400 µM. The same compound had a concentration for half-maximal inhibition (IC50) in data set [5] of 141 ± 4 µM. For the same compound, in data set [6], the “ROS generation (DCF fluorescence intensity)” value was “did not show ROS generation”.
Consider `Cc1noc(/C=C/c2ccc(O)c(O)c2)c1[N+](=O)[O-]` [Compound 8, (E)-4-(2-(3-Methyl-4-nitroisoxazol-5-yl)vinyl)benzene-1,2-diol], for which the melting point is 270 °C (dec.). In data set [1], the Ipa/Ipc was −0.34, the “|ΔEp|” value amounted to 150, the “−EpaII” value is listed as 1.02 and the “−EpcI” value stood at 0.93. Also, the “−EpcII” value in data set [1] worked out at 1.17. Besides, the “irreversible peak potential, mono-electronic transfer −HNO2/HNO2.−” value in data set [1] (cyclic voltammogram, Figure 2b) is recorded as −0.93 V. For the same compound, the “ORAC-FL Index” value in data set [2] is listed as 1.0 ± 0.1. In addition, in data set [3], the killing at 100 µM is 32 ± 5% and the concentration for half-maximal inhibition (IC50) was over 400 µM. Moreover, in data set [4], the killing at 100 µM came out at 16 ± 2% and the IC50 is over 400 µM. In data set [5], the IC50 amounted to 398.1 ± 0.3 µM. The “ROS generation (DCF fluorescence intensity)” value in data set [6] is recorded as “did not show ROS generation”.

For the origin of these results see article PMC11207111, “Assessment of the Activity of Nitroisoxazole Derivatives against Trypanosoma cruzi” (Molecules, 2024).
